Tests used:
[1] = biological target: HmuY (Porphyromonas gingivalis, UniProt A2BCY8, W51A); experiment: biochemical
[2] = biological target: HmuY (Porphyromonas gingivalis, UniProt A2BCY8, W73A); experiment: biochemical
[3] = biological target: HmuY (Porphyromonas gingivalis, UniProt A2BCY8, W73Y); experiment: biochemical
[4] = biological target: HmuY (Porphyromonas gingivalis, UniProt A2BCY8, W161Y); experiment: biochemical
[5] = biological target: HmuY (Porphyromonas gingivalis, UniProt A2BCY8, W161A); experiment: biochemical
[6] = biological target: HmuY (Porphyromonas gingivalis, UniProt A2BCY8, W51Y); experiment: biochemical
[7] = biological target: T1, HmuY (Porphyromonas gingivalis, UniProt A2BCY8); experiment: heme titration of apoprotein (UV-visible / Trp fluorescence quenching), one-site model; type: binding
T1 construct: polypeptide lacking the first 25 residues, plasmid pHmuY11, expressed in Escherichia coli ER2566, purified from soluble lysate
T1 sequence (A2BCY8 entry or part of it): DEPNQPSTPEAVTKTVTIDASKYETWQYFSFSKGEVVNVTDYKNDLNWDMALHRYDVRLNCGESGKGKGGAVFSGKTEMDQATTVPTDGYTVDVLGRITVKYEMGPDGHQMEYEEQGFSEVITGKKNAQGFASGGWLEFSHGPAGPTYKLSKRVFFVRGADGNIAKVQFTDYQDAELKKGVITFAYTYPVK

Chain of HmuY (Porphyromonas gingivalis, UniProt A2BCY8, W73A) (A2BCY8 26-216 W73A): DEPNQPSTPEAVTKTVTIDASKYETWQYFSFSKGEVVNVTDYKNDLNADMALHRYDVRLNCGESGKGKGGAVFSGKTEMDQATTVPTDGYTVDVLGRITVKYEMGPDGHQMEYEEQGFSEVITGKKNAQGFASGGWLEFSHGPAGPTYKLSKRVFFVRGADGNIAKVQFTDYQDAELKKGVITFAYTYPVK
Chain of HmuY (Porphyromonas gingivalis, UniProt A2BCY8, W161Y) (A2BCY8 26-216 W161Y): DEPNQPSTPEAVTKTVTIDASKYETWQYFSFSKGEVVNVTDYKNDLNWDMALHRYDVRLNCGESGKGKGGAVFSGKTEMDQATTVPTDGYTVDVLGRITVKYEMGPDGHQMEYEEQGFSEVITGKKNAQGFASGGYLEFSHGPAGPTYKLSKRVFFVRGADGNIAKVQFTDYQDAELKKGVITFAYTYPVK
Chain of HmuY (Porphyromonas gingivalis, UniProt A2BCY8, W51A) (A2BCY8 26-216 W51A): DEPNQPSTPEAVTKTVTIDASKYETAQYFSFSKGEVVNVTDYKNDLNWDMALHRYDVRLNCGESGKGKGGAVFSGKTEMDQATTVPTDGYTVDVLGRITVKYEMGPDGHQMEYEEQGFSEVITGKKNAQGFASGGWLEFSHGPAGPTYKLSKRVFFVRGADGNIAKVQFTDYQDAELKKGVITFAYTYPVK
Chain of HmuY (Porphyromonas gingivalis, UniProt A2BCY8, W51Y) (A2BCY8 26-216 W51Y): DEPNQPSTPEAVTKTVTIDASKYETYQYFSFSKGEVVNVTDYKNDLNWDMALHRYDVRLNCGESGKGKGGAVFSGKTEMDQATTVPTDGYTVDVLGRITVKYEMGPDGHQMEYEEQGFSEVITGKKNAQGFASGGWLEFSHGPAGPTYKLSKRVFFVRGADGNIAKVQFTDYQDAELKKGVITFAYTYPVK
Chain of HmuY (Porphyromonas gingivalis, UniProt A2BCY8, W161A) (A2BCY8 26-216 W161A): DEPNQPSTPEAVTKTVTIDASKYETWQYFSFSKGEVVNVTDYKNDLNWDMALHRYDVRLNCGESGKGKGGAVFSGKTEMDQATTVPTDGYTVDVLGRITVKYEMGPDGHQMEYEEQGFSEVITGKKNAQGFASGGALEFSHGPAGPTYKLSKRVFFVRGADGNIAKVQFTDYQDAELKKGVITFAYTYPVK
Chain of HmuY (Porphyromonas gingivalis, UniProt A2BCY8, W73Y) (A2BCY8 26-216 W73Y): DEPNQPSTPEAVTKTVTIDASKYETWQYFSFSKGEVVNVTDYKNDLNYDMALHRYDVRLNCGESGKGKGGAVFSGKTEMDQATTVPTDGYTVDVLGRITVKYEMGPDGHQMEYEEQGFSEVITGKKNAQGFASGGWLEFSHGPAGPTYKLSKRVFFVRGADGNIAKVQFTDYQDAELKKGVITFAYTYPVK

## C=CC1=C(C)C2=Cc3c(C=C)c(C)c4[n]3[Fe]([Cl])[n]3c(c(C)c(CCC(=O)O)c3=CC3=NC(=C4)C(C)=C3CCC(=O)O)=CC1=N2 [heme]
[1]
  Kd: 303 ± 13 nM
[2]
  Kd: 229 ± 8 nM
[3]
  Kd: 238 ± 12 nM
[4]
  Kd: 235 ± 11 nM
[5]
  Kd: 323 ± 16 nM
[6]
  Kd: 216 ± 7 nM
[7]
  Kd: 296 ± 12 nM

Source: article PMC3922309, “Differential roles of tryptophan residues in conformational stability of Porphyromonas gingivalis HmuY hemophore” (BMC Biochemistry, 2014)
